Data: PMC8392292 (Biomedicines, 2021)
Counter-ions that a name gives are not always drawn. Like-named read-outs stand apart in the source and are kept apart here.

Key:
[1] = target: SARS-CoV-2 RdRp (Severe acute respiratory syndrome coronavirus 2, UniProt P0DTD1); assay: cell-based; format: cell-based; settings: for Effect on SARS-CoV-2 RdRp activity: without nsp7 and nsp8; for inhibition at 100 µM: read-out: Inhibition % of RdRp Activity at Max. Dose; for FLuc activity (internal control): compound at the indicated concentrations
[2] = system: SARS-CoV-2 RdRp with nsp7 and nsp8; format: cell-based; settings: nsp7 + nsp8 or nsp8-IRES-nsp7 plasmids co-transfected, HEK293T
[3] = system: SARS-CoV-2; settings: cited from earlier work
[4] = […], mean ± standard error of the mean, read-out: IC50 of SARS-CoV-2 RdRp activity
[5] = representative experiment, non-linear regression graph, HEK293T, 15 h, read-out: IC50 of SARS-CoV-2 RdRp activity in the figure
[6] = IC50 of SARS-CoV-2 RdRp activity
[7] = HEK-293T, max. dose 100 μM, HEK293T, 15 h

## CC(C)(C)C(=O)OCOP(=O)(COCCn1cnc2c(N)ncnc21)OCOC(=O)C(C)(C)C [Adefovir Dipivoxil, adefovir dipivoxil]
[1]; [4]
  IC50: 3.78 ± 0.866 µM
[1]; [5]
  IC50: 3.92 µM

## COc1ccc2cc1Oc1ccc(cc1)C[C@H]1c3c(cc4c(c3Oc3cc5c(cc3OC)CCN(C)[C@@H]5C2)OCO4)CCN1C [Cepharanthine, cepharanthine]
[1]; HEK-293T, max. dose 10 μM, HEK293T, 15 h
  inhibition at 10 µM: 5.84%
[1]; [6]
  IC50: > 10 µM
[1]; HEK293T
  Effect on SARS-CoV-2 RdRp activity: did not affect
[1]; HEK293T, listed as cepharanthine
  Effect on SARS-CoV-2 RdRp activity: did not display any inhibitory effect
[2]
  Effect on SARS-CoV-2 RdRp activity with nsp7 and nsp8: did not affect
[2]; listed as cepharanthine
  Effect on SARS-CoV-2 RdRp activity with nsp7 and nsp8: did not display any inhibitory effect

## Nc1nc(=O)n([C@@H]2CS[C@H](CO)O2)cc1F [Emtricitabine, emtricitabine]
[1]; HEK-293T
  inhibition at 100 µM: 88.2%
[1]; [6]
  IC50: 15.4 ± 3.6 µM
[1]; IC50 of SARS-CoV-2 RdRp activity in the figure
  IC50: 13.8 µM

## C=C1[C@H](CO)[C@@H](O)C[C@@H]1n1cnc2c(=O)[nH]c(N)nc21 [Entecavir Hydrate, entecavir hydrate]
[1]; [7]
  inhibition at 100 µM: 83.1%

## Cl.O[C@H]1[C@H]2c3cc4c(cc3CN3CCC(=C[C@@H]1O)[C@H]23)OCO4 [Lycorine, lycorine hydrochloride]
[1]; HEK293T
  FLuc activity (internal control): remained unchanged
[1]; [4]
  IC50: 1.47 ± 0.033 µM
[1]; [5]
  IC50: 1.34 µM
[3]
  IC50: 0.878 ± 0.022 µM

## N=C(N)/N=C(\N)N1CCOCC1 [Moroxydine, moroxydine HCl]
[1]; [7]
  inhibition at 100 µM: 76.5%
[1]; [4]
  IC50: 48.9 ± 14.4 µM
[1]; [5]
  IC50: 37.1 µM

## CCC(CC)COC(=O)[C@H](C)N[P@](=O)(OC[C@H]1O[C@@](C#N)(c2ccc3c(N)ncnn23)[C@H](O)[C@@H]1O)Oc1ccccc1 [Remdesivir]
[1]; HEK293T
  FLuc activity (internal control): maintained
[1]; HEK-293T, max. dose 6.7 μM, HEK293T, 15 h
  inhibition at 6.7 µM: 71%

## CO[C@H]1/C=C/O[C@@]2(C)Oc3c(C)c(O)c4c(O)c(c(/C=N/N5CCN(C)CC5)c(O)c4c3C2=O)NC(=O)/C(C)=C\C=C\[C@H](C)[C@H](O)[C@@H](C)[C@@H](O)[C@@H](C)[C@H](OC(C)=O)[C@@H]1C [Rifampin, rifampin]
[1]; [4]
  IC50: 49.4 ± 4.02 µM
[1]; [5]
  IC50: 30.3 µM

## Cc1cn([C@@H]2C[C@@H](O)[C@H](CO)O2)c(=O)[nH]c1=O [Telbivudine, telbivudine]
[1]; [7]
  inhibition at 100 µM: 76.9%
[1]; [4]
  IC50: 45.9 ± 3.86 µM
[1]; [5]
  IC50: 39.6 µM
